From ChEMBL document CHEMBL1141934, “Comparison of ligand-based and structure-based 3D-QSAR approaches: a case study on (aryl-)bridged 2-aminobenzonitriles inhibiting HIV-1 reverse transcriptase” (J Med Chem, 2005)

Molecular target: Human immunodeficiency virus type 1 reverse transcriptase (Human immunodeficiency virus 1, UniProt Q72547)
Experiment: Inhibitory concentration against Reverse transcriptase

| SMILES | IC50 |
| --- | --- |
| N#Cc1ccccc1[S+]([O-])c1cccc(N)c1C#N (configuration not stated) | 9.77 µM |
| N#Cc1c(N)cccc1S(=O)(=O)c1ccc2ccccc2c1 | 0.0295 µM |
